Read-outs that look alike come from different tables or passages of the source.
Assays:
Assay type in all cases: in vivo
[1] = tested on: blackgrass (Alopecurus myosuroides); experiment: Test C pre-/postemergence greenhouse test, plant response rating 0-100; details: Alopecurus myosuroides; for pest or weed control at 62 g/ha: 62 g ai/ha; for pest or weed control at 125 g/ha: 125 g ai/ha; for pest or weed control at 250 g/ha: 250 g ai/ha
Method in brief: (§1)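 Pre-emergence soil and post-emergence foliar sprays were applied simultaneously to seeded loam–sand pots and to 1–4-leaf plants in peat medium; greenhouse holding lasted 13–15 days, then plants were scored visually from 0 (no effect) to 100 (complete control).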

[2] = tested on: corn (Zea mays); experiment: as above; details: Zea mays; for Corn plant response rating (crop injury, 0 = no effect, 100 = complete kill) at 250 g/ha: 250 g ai/ha
Method in brief: as §1

[3] = tested on: galium (catchweed bedstraw, Galium aparine); experiment: as above; details: Galium; for pest or weed control at 62 g/ha: 62 g ai/ha; for pest or weed control at 125 g/ha: 125 g ai/ha; for pest or weed control at 250 g/ha: 250 g ai/ha
Method in brief: as §1

[4] = tested on: johnsongrass (Sorghum halepense); experiment: as above; details: Sorghum halepense; for pest or weed control at 62 g/ha: 62 g ai/ha; for pest or weed control at 125 g/ha: 125 g ai/ha; for pest or weed control at 250 g/ha: 250 g ai/ha
Method in brief: as §1

[5] = tested on: lambsquarters (Chenopodium album); experiment: as above; details: Chenopodium album; for pest or weed control at 62 g/ha: 62 g ai/ha; for pest or weed control at 125 g/ha: 125 g ai/ha; for pest or weed control at 250 g/ha: 250 g ai/ha
Method in brief: as §1

[6] = tested on: large (Lg) crabgrass (Digitaria sanguinalis); experiment: as above; details: Digitaria sanguinalis; for pest or weed control at 62 g/ha: 62 g ai/ha; for pest or weed control at 125 g/ha: 125 g ai/ha; for pest or weed control at 250 g/ha: 250 g ai/ha
Method in brief: as §1

[7] = tested on: morningglory (Ipomoea coccinea); experiment: as above; details: Ipomoea; for pest or weed control at 62 g/ha: 62 g ai/ha; for pest or weed control at 125 g/ha: 125 g ai/ha; for pest or weed control at 250 g/ha: 250 g ai/ha
Method in brief: as §1

[8] = tested on: pigweed (Amaranthus retroflexus); experiment: as above; details: Amaranthus retroflexus; for pest or weed control at 62 g/ha: 62 g ai/ha; for pest or weed control at 250 g/ha: 250 g ai/ha
Method in brief: as §1

[9] = tested on: ragweed (common ragweed, Ambrosia elatior); experiment: as above; details: Ambrosia artemisiifolia; for pest or weed control at 62 g/ha: 62 g ai/ha; for pest or weed control at 125 g/ha: 125 g ai/ha; for pest or weed control at 250 g/ha: 250 g ai/ha
Method in brief: as §1

[10] = tested on: velvetleaf (Abutilon theophrasti); experiment: as above; details: Abutilon theophrasti; for pest or weed control at 62 g/ha: 62 g ai/ha; for pest or weed control at 125 g/ha: 125 g ai/ha; for pest or weed control at 250 g/ha: 250 g ai/ha
Method in brief: as §1

[11] = tested on: winter wheat (Triticum aestivum); experiment: as above; details: Triticum aestivum; for plant injury at 62 g/ha: 62 g ai/ha; for plant injury at 125 g/ha: 125 g ai/ha; for plant injury at 250 g/ha: 250 g ai/ha
Method in brief: as §1

[12] = tested on: yellow nutsedge (Cyperus esculentus); experiment: as above; details: Cyperus; for pest or weed control at 62 g/ha: 62 g ai/ha; for pest or weed control at 125 g/ha: 125 g ai/ha; for pest or weed control at 250 g/ha: 250 g ai/ha
Method in brief: as §1

[13] = tested on: windgrass (Apera spica-venti); experiment: Test C postemergence greenhouse test, plant response rating 0-100
Method in brief: (§2)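 Plants rated visually 0 (no effect) to 100 (complete control) against untreated controls after 13 to 15 days in the greenhouse, dash indicating no result. Treatment was a postemergence application of formulated chemicals at the 1- to 4-leaf stage (2 to 18 cm), in pots of peat-vermiculite medium.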

[14] = tested on: winter barley (Hordeum vulgare); experiment: as above
Method in brief: as §2

[15] = post-emergence, Postemergence, read-out: Plant response rating (0 to 100), Blackgrass
[16] = post-emergence, Postemergence, scale 0 to 100
[17] = pre-emergence, Preemergence, read-out: Plant response rating, Blackgrass
[18] = pre-emergence, Preemergence, 500 g ai/ha
[19] = post-emergence, Postemergence, read-out: Plant response rating (0 to 100), Galium
[20] = pre-emergence, Preemergence, read-out: Plant response rating, Galium
[21] = post-emergence, Postemergence, read-out: Plant response rating (0 to 100), Johnsongrass
[22] = pre-emergence, Preemergence, read-out: Plant response rating, Johnsongrass
[23] = post-emergence, Postemergence, read-out: Plant response rating (0 to 100), Lambsquarters
[24] = pre-emergence, Preemergence, read-out: Plant response rating, Lambsquarters
[25] = post-emergence, Postemergence, read-out: Plant response rating (0 to 100), Crabgrass, Large
[26] = pre-emergence, Preemergence, read-out: Plant response rating, Crabgrass, Large
[27] = post-emergence, Postemergence, read-out: Plant response rating (0 to 100), Morningglory
[28] = pre-emergence, Preemergence, read-out: Plant response rating, Morningglory
[29] = post-emergence, Postemergence, read-out: Plant response rating (0 to 100), Ragweed
[30] = pre-emergence, Preemergence, read-out: Plant response rating, Ragweed
[31] = post-emergence, Postemergence, read-out: Plant response rating (0 to 100), Velvetleaf
[32] = pre-emergence, Preemergence, read-out: Plant response rating, Velvetleaf
[33] = post-emergence, Postemergence, read-out: Plant response rating (0 to 100), Wheat
[34] = pre-emergence, Preemergence, read-out: Plant response rating, Wheat
[35] = post-emergence, Postemergence, read-out: Plant response rating (0 to 100), Nutsedge, Yellow
[36] = pre-emergence, Preemergence, read-out: Plant response rating, Nutsedge, Yellow

With `Cn1cc(C(=O)c2ccccc2)c(-c2cc(Cl)cc(Cl)c2)n1` [Compound 54, [3-(3,5-dichlorophenyl)-1-methyl-1H-pyrazol-4-yl]phenylmethanone] the pest or weed control at 31 g/ha ([1]; post-emergence, Postemergence, 31 g ai/ha, read-out: Plant response rating (0 to 100), Blackgrass) was 0%, the pest or weed control at 62 g/ha [1, 15] was 0% and the pest or weed control at 125 g/ha [1, 15] was 0%. The pest or weed control at 250 g/ha [1, 16] was 0%, the pest or weed control at 62 g/ha [1, 17] was 0% and the pest or weed control at 125 g/ha [1, 17] was 0%. For the same compound, the pest or weed control at 250 g/ha ([1]; pre-emergence, Preemergence) was 0%, the plant injury at 31 g/ha ([2]; post-emergence, Postemergence, 31 g ai/ha) was 0% and the plant injury at 62 g/ha ([2]; post-emergence, Postemergence, 62 g ai/ha) was 0%. It also gave a plant injury at 125 g/ha ([2]; post-emergence, Postemergence, 125 g ai/ha) of 0%, a Corn plant response rating (crop injury, 0 = no effect, 100 = complete kill) at 250 g/ha [2, 16] of 0% and a Corn plant response rating (crop injury, 0 = no effect, 100 = complete kill) at 62 g/ha ([2]; pre-emergence, Preemergence, 62 g ai/ha) of 0%. The Corn plant response rating (crop injury, 0 = no effect, 100 = complete kill) at 125 g/ha ([2]; pre-emergence, Preemergence, 125 g ai/ha) was 0%, the Corn plant response rating (crop injury, 0 = no effect, 100 = complete kill) at 250 g/ha ([2]; pre-emergence, Preemergence) was 10% and the Corn plant response rating (crop injury, 0 = no effect, 100 = complete kill) at 500 g/ha [2, 18] was 10%. It also gave a pest or weed control at 31 g/ha ([3]; post-emergence, Postemergence, 31 g ai/ha, read-out: Plant response rating (0 to 100), Galium) of 0%, a pest or weed control at 62 g/ha [3, 19] of 0% and a pest or weed control at 125 g/ha [3, 19] of 0%. For the same compound, the pest or weed control at 250 g/ha [3, 16] was 5%, the pest or weed control at 62 g/ha [3, 20] was 0% and the pest or weed control at 125 g/ha [3, 20] was 0%. It also gave a pest or weed control at 250 g/ha ([3]; pre-emergence, Preemergence) of 0%, a pest or weed control at 500 g/ha [3, 18] of 5% and a pest or weed control at 62 g/ha [4, 21] of 0%. It also gave a pest or weed control at 125 g/ha [4, 21] of 0%, a pest or weed control at 250 g/ha [4, 16] of 0% and a pest or weed control at 62 g/ha [4, 22] of 0%. For the same compound, the pest or weed control at 125 g/ha [4, 22] was 0%, the pest or weed control at 250 g/ha ([4]; pre-emergence, Preemergence) was 0% and the pest or weed control at 500 g/ha [4, 18] was 0%. For the same compound, the pest or weed control at 62 g/ha [5, 23] was 50%, the pest or weed control at 125 g/ha [5, 23] was 55% and the pest or weed control at 250 g/ha [5, 16] was 55%. The pest or weed control at 62 g/ha [5, 24] was 30%, the pest or weed control at 125 g/ha [5, 24] was 40% and the pest or weed control at 250 g/ha ([5]; pre-emergence, Preemergence) was 50%. It also gave a pest or weed control at 500 g/ha [5, 18] of 100%, a pest or weed control at 31 g/ha ([6]; post-emergence, Postemergence, 31 g ai/ha, read-out: Plant response rating (0 to 100), Crabgrass, Large) of 0% and a pest or weed control at 62 g/ha [6, 25] of 0%. For the same compound, the pest or weed control at 125 g/ha [6, 25] was 0%, the pest or weed control at 250 g/ha [6, 16] was 0% and the pest or weed control at 62 g/ha [6, 26] was 0%. For the same compound, the pest or weed control at 125 g/ha [6, 26] was 0%, the pest or weed control at 250 g/ha ([6]; pre-emergence, Preemergence) was 0% and the pest or weed control at 500 g/ha [6, 18] was 30%. The pest or weed control at 62 g/ha [7, 27] was 0%, the pest or weed control at 125 g/ha [7, 27] was 0% and the pest or weed control at 250 g/ha [7, 16] was 0%. The pest or weed control at 62 g/ha [7, 28] was 0%, the pest or weed control at 125 g/ha [7, 28] was 0% and the pest or weed control at 250 g/ha ([7]; pre-emergence, Preemergence) was 15%. For the same compound, the pest or weed control at 500 g/ha [7, 18] was 40%, the pest or weed control at 62 g/ha ([8]; post-emergence, Postemergence, read-out: Plant response rating (0 to 100), Pigweed) was 98% and the pest or weed control at 125 g/ha ([8]; post-emergence, Postemergence, 125 g ai/ha, read-out: Plant response rating (0 to 100), Pigweed) was 100%. For the same compound, the pest or weed control at 250 g/ha [8, 16] was 100%, the pest or weed control at 62 g/ha ([8]; pre-emergence, Preemergence, read-out: Plant response rating, Pigweed) was 90% and the pest or weed control at 250 g/ha ([8]; pre-emergence, Preemergence) was 95%. The pest or weed control at 500 g/ha [8, 18] was 95%, the pest or weed control at 62 g/ha [9, 29] was 0% and the pest or weed control at 125 g/ha [9, 29] was 0%. For the same compound, the pest or weed control at 250 g/ha [9, 16] was 20%, the pest or weed control at 62 g/ha [9, 30] was 5% and the pest or weed control at 125 g/ha [9, 30] was 15%. The pest or weed control at 250 g/ha ([9]; pre-emergence, Preemergence) was 15%, the pest or weed control at 500 g/ha [9, 18] was 40% and the pest or weed control at 62 g/ha [10, 31] was 80%. For the same compound, the pest or weed control at 125 g/ha [10, 31] was 85%, the pest or weed control at 250 g/ha [10, 16] was 100% and the pest or weed control at 62 g/ha [10, 32] was 45%. For the same compound, the pest or weed control at 125 g/ha [10, 32] was 55%, the pest or weed control at 250 g/ha ([10]; pre-emergence, Preemergence) was 60% and the pest or weed control at 500 g/ha [10, 18] was 80%. It also gave a plant injury at 62 g/ha [11, 33] of 0%, a plant injury at 125 g/ha [11, 33] of 0% and a plant injury at 250 g/ha [11, 16] of 0%. The plant injury at 62 g/ha [11, 34] was 0%, the plant injury at 125 g/ha [11, 34] was 0% and the plant injury at 250 g/ha ([11]; pre-emergence, Preemergence) was 0%. For the same compound, the plant injury at 500 g/ha [11, 18] was 0%, the pest or weed control at 62 g/ha [12, 35] was 0% and the pest or weed control at 125 g/ha [12, 35] was 0%. The pest or weed control at 250 g/ha [12, 16] was 0%, the pest or weed control at 62 g/ha [12, 36] was 0% and the pest or weed control at 125 g/ha [12, 36] was 0%. The pest or weed control at 250 g/ha ([12]; pre-emergence, Preemergence) was 0%, the pest or weed control at 500 g/ha [12, 18] was 25% and the “Plant response rating (0 to 100), Windgrass” value ([13]; 62 g ai/ha) was 0. For the same compound, the “Plant response rating (0 to 100), Windgrass” value ([13]; 125 g ai/ha) was 0, the “Plant response rating, Windgrass” value ([13]; 250 g ai/ha, scale 0 to 100) was 0 and the “Plant response rating (0 to 100), Barley” value ([14]; 31 g ai/ha) was 0. For the same compound, the “Plant response rating (0 to 100), Barley” value ([14]; 62 g ai/ha) was 0, the “Plant response rating (0 to 100), Barley” value ([14]; 125 g ai/ha) was 0 and the “Plant response rating, Barley” value ([14]; 250 g ai/ha, scale 0 to 100) was 0.
